From patent publication US10287301B2 (Achillion Pharmaceuticals, Inc., priority 2015, dated 2019)
pIC50: −log10 of the molar value. Read-outs that look alike come from different tables or passages of the source.

Biological target: Human Factor D (Homo sapiens (Human), UniProt P00746)
Assay: Human Factor D Assay
Type: biochemical
Method: Human Factor D (purified from human serum, Complement Technology, Inc.) at 80 nM final concentration was incubated with test compound at various concentrations for 5 minutes at room temperature in 50 mM Tris, 1M NaCl, pH 7.5. A synthetic substrate Z-L-Lys-SBzl and DTNB (Ellman's reagent) are added to final concentrations of 100 μM each. […] IC50 values are calculated by nonlinear regression of complement Factor D reaction rates as a function of test compound concentration.

[1] = Human Factor D, Table 3, read-out: IC50
[2] = Human Factor D 80 nM, substrate Z-L-Lys-SBzl, read-out: IC50
[3] = Human Factor D assay of Example 8, Table 2, read-out: IC50
[4] = Table 3, Human Factor D 80 nM, substrate Z-L-Lys-SBzl, read-out: IC50 (Stars)

Human Factor D, sequence (P00746 26-253): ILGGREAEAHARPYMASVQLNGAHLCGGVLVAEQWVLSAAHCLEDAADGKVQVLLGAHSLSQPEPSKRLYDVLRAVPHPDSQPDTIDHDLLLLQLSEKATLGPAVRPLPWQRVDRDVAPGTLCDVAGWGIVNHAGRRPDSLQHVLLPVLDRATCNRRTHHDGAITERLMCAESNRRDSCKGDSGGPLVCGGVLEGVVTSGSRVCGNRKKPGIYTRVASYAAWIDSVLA

For `CC(=O)c1cn(CC(=O)N2C[C@H](F)C[C@H]2C(=O)NC2CCCN(c3cc(C)ccc3F)C2=O)c2ccc(-c3ccnnc3)cc12` (stereo partly drawn) [Compound 125, (2S,4R)-1-(2-(3-acetyl-5-(pyridazin-4-yl)-1H-indol-1-yl)acetyl)-4-fluoro-N-(1-(2-fluoro-5-methylphenyl)-2-oxopiperidin-3-yl)pyrrolidine-2-carboxamide], the pIC50 was 5.00 to 6.00.

With `CC(=O)c1nn(CC(=O)N2C[C@H](F)C[C@H]2C(=O)Nc2cccc(Br)n2)c2cc(C(=O)N(C)C)c(-c3cnc(C)nc3)cc12` [Compound 722, 3-Acetyl-1-(2-((2S,4R)-2-((6-bromopyridin-2-yl)carbamoyl)-4-fluoropyrrolidin-1-yl)-2-oxoethyl)-N,N-dimethyl-5-(2-methylpyrimidin-5-yl)-1H-indazole-6-carboxamide] the pIC50 [1] was > 6.00.

For `NC(=O)c1nn(CC(=O)N2C[C@H](F)C[C@H]2C(=O)Nc2nnc(-c3ccccc3Cl)s2)c2ccc(-c3ccnnc3)cc12` [Compound 115, 1-(2-((2S,4R)-2-(5-(2-chlorophenyl)-1,3,4-thiadiazol-2-ylcarbamoyl)-4-fluoropyrrolidin-1-yl)-2-oxoethyl)-5-(pyridazin-4-yl)-1H-indazole-3-carboxamide], the pIC50 [2] was < 5.00.

With `NC(=O)c1nn(CC(=O)N2C[C@H](F)C[C@H]2C(=O)Nc2cccc(Br)n2)c2ccc(-c3[nH]nnc3-c3cncnc3)cc12` [Compound 251, 1-(2-((2S,4R)-2-(6-bromopyridin-2-ylcarbamoyl)-4-fluoropyrrolidin-1-yl)-2-oxoethyl)-5-(4-(pyrimidin-5-yl)-1H-1,2,3-triazol-5-yl)-1H-indazole-3-carboxamide] the pIC50 [3] was > 6.00.

With `CC(=O)c1nn(CC(=O)N2C[C@H](F)C[C@H]2C(=O)Nc2cccc(OC(F)F)n2)c2ccc(-c3cnc4cc(C)nn4c3)cc12` [Compound 658, (2S,4R)-1-(2-(3-Acetyl-5-(2-methylpyrazolo[1,5-a]pyrimidin-6-yl)-1H-indazol-1-yl)acetyl)-N-(6-(difluoromethoxy)pyridin-2-yl)-4-fluoropyrrolidine-2-carboxamide] the pIC50 [1] was > 6.00.

In the case of `CC(=O)c1cn(CC(=O)N2C[C@H](F)C[C@H]2C(=O)Nc2cccc(-c3cc(F)c(F)cc3Cl)c2F)c2ccc(-c3cnc(C)nc3)cc12` [Compound 150, (2S,4R)-1-(2-(3-acetyl-5-(2-methylpyrimidin-5-yl)-1H-indol-1-yl)acetyl)-N-(2′-chloro-2,4′,5′-trifluorobiphenyl-3-yl)-4-fluoropyrrolidine-2-carboxamide], the pIC50 [2] was > 6.00.

For `CC(=O)c1nn(CC(=O)N2C[C@H](F)C[C@H]2C(=O)Nc2nccc(-c3sccc3Cl)n2)c2ccc(-c3cnc(C)nc3)cc12` [Compound 228, (2S,4R)-1-(2-(3-acetyl-5-(2-methylpyrimidin-5-yl)-1H-indazol-1-yl)acetyl)-N-(4-(3-chlorothiophen-2-yl)pyrimidin-2-yl)-4-fluoropyrrolidine-2-carboxamide], the pIC50 [3] was > 6.00.

For `CC(=O)c1nn(CC(=O)N2C[C@H](F)C[C@H]2C(=O)Nc2cccc(Cl)n2)c2ccc(-c3cnc(C)nc3)cc12` [Compound 225, (2S,4R)-1-(2-(3-acetyl-5-(2-methylpyrimidin-5-yl)-1H-indazol-1-yl)acetyl)-N-(6-chloropyridin-2-yl)-4-fluoropyrrolidine-2-carboxamide], the pIC50 [3] was > 6.00.

With `CC(=O)c1nn(CC(=O)N2C[C@H](F)C[C@H]2C(=O)Nc2cccc(-c3c(F)c(F)c(F)c(F)c3F)c2F)c2ccc(-c3cnc(C)nc3)cc12` [Compound 272, (2S,4R)-1-(2-(3-acetyl-5-(2-methylpyrimidin-5-yl)-1H-indazol-1-yl)acetyl)-4-fluoro-N-(2,2′,3′,4′,5′,6′-hexafluorobiphenyl-3-yl)pyrrolidine-2-carboxamide] the pIC50 [3] was > 6.00.

For `CC(=O)Nc1ncc(-c2ccc3c(c2)c(C(C)=O)cn3CC(=O)N2C[C@H](F)C[C@H]2C(=O)Nc2cccc(-c3ccccc3Cl)c2F)cn1` [Compound 138, (2S,4R)-1-(2-(5-(2-acetamidopyrimidin-5-yl)-3-acetyl-1H-indol-1-yl)acetyl)-N-(2′-chloro-2-fluorobiphenyl-3-yl)-4-fluoropyrrolidine-2-carboxamide], the pIC50 [2] was > 6.00.

`CC(=O)c1nn(CC(=O)N2C[C@H](F)C[C@H]2C(=O)Nc2cc(C)cc(Br)n2)c2ccc(-c3cnc4cc(C)nn4c3)cc12` [Compound 332, (2S,4R)-1-(2-(3-acetyl-5-(2-methylpyrazolo[1,5-a]pyrimidin-6-yl)-1H-indazol-1-yl)acetyl)-N-(6-bromo-4-methylpyridin-2-yl)-4-fluoropyrrolidine-2-carboxamide] was tested, and the pIC50 [3] was > 6.00.

For `CNc1ncc(-c2ccc3c(c2)c(C(C)=O)nn3CC(=O)N2C[C@H](F)C[C@H]2C(=O)Nc2cccc(Br)n2)cn1` [Compound 390, (2S,4R)-1-(2-(3-Acetyl-5-(2-(methylamino)pyrimidin-5-yl)-1H-indazol-1-yl)acetyl)-N-(6-bromopyridin-2-yl)-4-fluoropyrrolidine-2-carboxamide], the pIC50 [4] was > 6.00.

With `CC(=O)c1cn(CC(=O)N2C[C@H](F)C[C@H]2C(=O)Nc2cccc(Br)n2)c2ccc(-c3ccccc3Cl)cc12` [Compound 100, (2S,4R)-1-(2-(3-acetyl-5-(2-chlorophenyl)-1H-indol-1-yl)acetyl)-N-(6-bromopyridin-2-yl)-4-fluoropyrrolidine-2-carboxamide] the pIC50 [2] was > 6.00.

With `COc1ncc(-c2ccc3c(c2)c(C(C)=O)cn3CC(=O)N2C[C@H](F)C[C@H]2C(=O)NCc2cccc(Cl)c2F)cn1` [Compound 136, (2S,4R)-1-(2-(3-acetyl-5-(2-methoxypyrimidin-5-yl)-1H-indol-1-yl)acetyl)-N-(3-chloro-2-fluorobenzyl)-4-fluoropyrrolidine-2-carboxamide] the pIC50 [2] was > 6.00.

`NC(=O)c1nn(CC(=O)N2C[C@H](F)C[C@H]2C(=O)N[C@H]2CCCC[C@@H]2O)c2ccc(-c3ccnnc3)cc12` [Compound 172, 1-(2-((2S,4R)-4-fluoro-2-((1S,2S)-2-hydroxycyclohexylcarbamoyl)pyrrolidin-1-yl)-2-oxoethyl)-5-(pyridazin-4-yl)-1H-indazole-3-carboxamide] was tested, and the pIC50 [2] was < 5.00.

`CC(=O)c1nn(CC(=O)N2C[C@@H]3C[C@@H]3[C@H]2C(=O)Nc2nc(Br)ccc2C)c2ccc(-c3cnc(C)nc3)cc12` [Compound 605, (1S,2S,5R)-3-(2-(3-Acetyl-5-(2-methylpyrimidin-5-yl)-1H-indazol-1-yl)acetyl)-N-(6-bromo-3-methylpyridin-2-yl)-3-azabicyclo[3.1.0]hexane-2-carboxamide] was tested, and the pIC50 [1] was > 6.00.

In the case of `CC(=O)c1nn(CC(=O)N2C[C@H](F)C[C@H]2C(=O)Nc2cccc(Br)n2)c2ccc(-c3cnc(Oc4ccncc4)nc3)cc12` [Compound 554, (2S,4R)-1-(2-(3-aAetyl-5-(2-(pyridin-4-yloxy)pyrimidin-5-yl)-1H-indazol-1-yl)acetyl)-N-(6-bromopyridin-2-yl)-4-fluoropyrrolidine-2-carboxamide], the pIC50 [1] was > 6.00.

With `CC(=O)c1nn(CC(=O)N2C[C@H](F)C[C@H]2C(=O)Nc2cccc(-c3ncco3)n2)c2ccc(-c3cnc(C)nc3)cc12` [Compound 600, (2S,4R)-1-(2-(3-Acetyl-5-(2-methylpyrimidin-5-yl)-1H-indazol-1-yl)acetyl)-4-fluoro-N-(6-(oxazol-2-yl)pyridin-2-yl)pyrrolidine-2-carboxamide] the pIC50 [1] was > 6.00.

In the case of `NC(=O)c1nn(CC(=O)N2[C@@H]3C[C@@H]3C[C@H]2C(=O)Nc2cccc(-c3ccccc3Cl)c2F)c2ccc(-c3ccc(F)nc3)cc12` [Compound 13, 1-(2-((1R,3S,5R)-3-(2′-chloro-2-fluorobiphenyl-3-ylcarbamoyl)-2-azabicyclo[3.1.0]hexan-2-yl)-2-oxoethyl)-5-(6-fluoropyridin-3-yl)-1H-indazole-3-carboxamide], the pIC50 [2] was > 6.00.

With `CCc1ncc(-c2ccc3c(c2)c(C(C)=O)nn3CC(=O)N2C[C@H](F)C[C@H]2C(=O)Nc2cncc(Br)n2)cn1` [Compound 388, (2S,4R)-1-(2-(3-Acetyl-5-(2-ethylpyrimidin-5-yl)-1H-indazol-1-yl)acetyl)-N-(6-bromopyrazin-2-yl)-4-fluoropyrrolidine-2-carboxamide] the pIC50 [4] was > 6.00.

For `CC(=O)c1cn(CC(=O)N2C[C@H](F)C[C@H]2C(=O)Nc2ccccc2-n2nccc2C)c2ccc(-c3ccnnc3)cc12` [Compound 72, (2S,4R)-1-(2-(3-acetyl-5-(pyridazin-4-yl)-1H-indol-1-yl)acetyl)-4-fluoro-N-(2-(5-methyl-1H-pyrazol-1-yl)phenyl) pyrrolidine-2-carboxamide], the pIC50 [2] was < 5.00.

In the case of `CC(=O)c1nn(CC(=O)N2[C@H](C(=O)Nc3cccc(C(F)(F)F)n3)C[C@@]3(C)C[C@@H]23)c2ccc(-c3cnc(C)nc3)cc12` [Compound 631, (1R,3S,5R)-2-(2-(3-acetyl-5-(2-methylpyrimidin-5-yl)-1H-indazol-1-yl)acetyl)-5-methyl-N-(6-(trifluoromethyl)pyridin-2-yl)-2-azabicyclo[3.1.0] hexane-3-carboxamide], the pIC50 [1] was > 6.00.

`CC(=O)c1nn(CC(=O)N2[C@H](C(=O)Nc3nc(Br)ccc3C)C[C@@]3(C)C[C@@H]23)c2ccc(-c3cnc(C)nc3)cc12` [Compound 485, (1R,3S,5R)-2-(2-(3-Acetyl-5-(2-methylpyrimidin-5-yl)-1H-indazol-1-yl)acetyl)-N-(6-bromo-3-methylpyridin-2-yl)-5-methyl-2-azabicyclo[3.1.0]hexane-3-carboxamide] was tested, and the pIC50 [4] was > 6.00.

With `CC(=O)c1nn(CC(=O)N2[C@H]3C[C@@]3(C)C[C@H]2C(=O)Nc2cccc(Br)n2)c2ccc(-c3cnc(C)nc3)cc12` [Compound 382, (1S,3S,5S)-2-(2-(3-Acetyl-5-(2-methylpyrimidin-5-yl)-1H-indazol-1-yl)acetyl)-N-(6-bromopyridin-2-yl)-5-methyl-2-azabicyclo[3.1.0]hexane-3-carboxamide] the pIC50 [4] was > 6.00.
